Results from publication PMC10535741, “Styrylpyridinium Derivatives for Fluorescent Cell Imaging” (Pharmaceuticals, 2023).
“And” between values parts separate entries of the source, which are not always exact repeats. Equal entries are not always repeated.

What was measured:
[1] = tested on: NIH3T3 (mouse fibroblast) cell line; assay: Basal cytotoxicity, neutral red uptake (NRU) assay, with LD50 estimated from IC50; format: cell-based
Experimental: The evaluation of the in vitro cytotoxicity (IC50, half maximal inhibitory concentration) of the abovementioned compounds and their structural derivatives was assessed using the standard colorimetric 3-(4,5-dimethylthiazol-2-yl)-2,5-diphenyltetrazolium bromide (MTT) assay on two monolayer tumour cell lines, namely HT-1080 (human connective tissue fibrosarcoma) and MH-22A (mouse hepatocarcinoma). Additionally, the impact of the compound on non-cancerous “normal” cells—mouse fibroblasts (NIH3T3)—was estimated in order to measure the basal toxicity (LD50, median lethal dose). The obtained results were used for investigation of the structure–activity relationships and exploration of the effect of substituents on cellular response and toxicity. The estimated LD50 gives information regarding the compound properties and could potentially be used to select promising compounds by providing a starting dose for in vivo experiments.
To assess basal cytotoxicity, the neutral red uptake (NRU) assay was conducted following a modified version of the standard protocol of Stokes’ [71], as validated by the NICEATM-ECVAM study. The NRU cytotoxicity assay determines the ability of viable cells to incorporate and bind a supravital dye, neutral red (NR).
NIH3T3 cells (9000 cells/well) were cultured in 96-well plates in DMEM medium supplemented with 5% FBS for 24 h. Subsequently, the cells were exposed to the test compounds over a range of seven concentrations (1000 µg/mL, 316 µg/mL, 100 µg/mL, 31 µg/mL, 10 µg/mL, 3.0 µg/mL, and 1.0 µg/mL) for 24 h. Untreated cells were used as a control. After the incubation period, the medium was removed from all plates and a solution of NR was added (250 µL, 0.05 mg/mL NR in DMEM 24 h pre-incubated at 37 °C and then filtered before use through a 0.22 µm syringe filter). The plates were incubated for 3 h, followed by three washes with phosphate-buffered saline (PBS). The cells were then treated with a mixture of ethanol (50%) and water (49%) supplemented with 1% acetic acid. The absorbance of NR was measured using a spectrophotometer multiplate reader (Infinite M1000; Tecan Austria GmbH, Salzburg, Austria) at 540 nm. The optical density (OD) was then calculated using the following formula: ODtreated cells×100/ODcontrol cells.
The IC50 values were calculated using the program Graph Pad Prism® 3.0.
In vitro test results were employed to estimate the starting dose for acute oral systemic toxicity tests in rodents (LD50). The LD50 value was calculated using the in vitro IC50 value and a following formula: logLD50(mM/kg)=0.439×logIC50(mM)+0.621
The value was then converted to mg/kg and the compounds classified into four toxicity categories. Category 1 (highly toxic): LD50 ≤ 5 mg/kg; Category 2 (moderately toxic): 5 < LD50 ≤ 50 mg/kg; Category 3 (slightly toxic): 50 < LD50 ≤ 300 mg/kg; Category 4 (practically non-toxic): 300 < LD50 ≤ 2000 mg/kg.

[2] = Self-assembling properties by dynamic light scattering (DLS); format: physicochemical; conditions: 0.1 mM in aqueous medium, ethanol injection, freshly prepared
Experimental: The estimation of self-assembling properties for the selected compounds was performed using dynamic light scattering (DLS) measurements. The values for the polydispersity index (PDI) and the hydrodynamic average diameter (Dav) of nanoparticles formed by compounds 6a,c–e,g were determined (with a final compound concentration of 0.1 mM in the aqueous medium). The nanoparticles were prepared by the ethanol injection method via the dissolution of the compound in ethanol and after that by the dispersion of the solution into water. The approach is rapid, simple, and can be easily scaled up. This method was previously used successfully for the preparation and characterisation of lipid-like pyridinium amphiphiles. The DLS measurements were performed for freshly prepared samples at room temperature.
The self-assembling properties of the tested compounds were estimated according to a published procedure with minor modifications. Stock solutions of the compounds were prepared in EtOH at a concentration of 1 mM. Stock solutions of the compounds (0.3 mL) were injected into 2.7 mL of deionised water with maximum stirring (IKA Vortex 2 (IKA, Staufen, Germany)) to obtain a final concentration of 0.1 mM. The DLS measurements of the nanoparticles in the aqueous solution were conducted using a Zetasizer Nano ZSP (Malvern Panalytical Ltd., Malvern, UK) instrument with Malvern Instruments Ltd. Software 8.01.4906. The measurements were performed with the following settings—medium: water; refractive index: 1.33; viscosity: 0.8872 cP; temperature: 25 °C; dielectric constant: 78.5; nanoparticles: liposomes; refractive index of materials: 1.60; detection angle: 173° wavelength: 633 nm. The obtained data were analysed using the multimodal number distribution software provided with the instrument. To ensure reproducibility, the measurements were performed in triplicate.

CCCCCCCCCCCC[n+]1ccc(C=Cc2cc(OC)c(OC)c(OC)c2)cc1.[Br-] [Compound 6a, 4-(3,4,5-trimethoxystyryl)-N-dodecylpyridinium bromide]
times decrease of basal toxicity of 6a compared with 6d ([1]; ratio of LD50 values): 1.5 times
PDI (polydispersity index) [2]: 0.331 ± 0.261

CCCCCCCCCCCCCCCC[n+]1ccc(C=Cc2cc(OC)c(OC)c(OC)c2)cc1.[Br-] [Compound 6b]
times more toxic than 6a, basal toxicity [1]: 2.8 times
Basal cytotoxicity (NIH3T3) LD50 ([1]; estimated from in vitro NRU IC50 (24 h) by log LD50 = 0.439 x log IC50 + 0.621): 91 ± 6 mg/kg
Basal cytotoxicity (NIH3T3) LD50 ([1]; mouse): 0.15 mM/kg

CCCCCCCCCCCCCCCC[n+]1ccc(C=CC=Cc2ccc(OC)cc2)cc1.[Br-] [Compound 6c, 1-hexadecyl-4-(4-(4-methoxyphenyl)buta-1,3-dien-1-yl)pyridin-1-ium bromide]
Dav, nm (average diameter of formed nanoparticles) [2]: 212 nm and 212 ± 4 nm
PDI (polydispersity index) [2]: 0.218 ± 0.026

CCCCCCCCCCCC[n+]1ccc(C=Cc2cc3c4c(c2)CCCN4CCC3)cc1.[Br-] [Compound 6d, 1-dodecyl-4-(2-(2,3,6,7-tetrahydro-1H,5H-pyrido[3,2,1-ij]quinolin-9-yl)vinyl)pyridin-1-ium bromide]
times higher basal cytotoxicity than compound 7a ([1]; 6d versus 7a): 6.5 times
PDI (polydispersity index) [2]: 0.286 ± 0.030

CCCCCCCCCCCCCCCC[n+]1ccc(C=CC=Cc2cc3c4c(c2)CCCN4CCC3)cc1.[Br-] [Compound 6e, 1-hexadecyl-4-(4-(2,3,6,7-tetrahydro-1H,5H-pyrido[3,2,1-ij]quinolin-9-yl)buta-1,3-dien-1-yl)pyridin-1-ium bromide]
times lower basal cytotoxicity than 6d ([1]; 6e versus 6d): ~ 2.8 times
basal toxicity classification in words ([1]; from estimated LD50, NIH3T3): harmful
Dav, nm (average diameter of formed nanoparticles) [2]: 118 nm and 118 ± 4 nm
PDI (polydispersity index) [2]: 0.260 ± 0.011
